The results in this text go back to ChEMBL document CHEMBL4507291 (2021).

Test [1] deals with T1, Tyrosine-protein kinase JAK3 (Homo sapiens) (UniProt P52333).
T1 sequence (whole entry): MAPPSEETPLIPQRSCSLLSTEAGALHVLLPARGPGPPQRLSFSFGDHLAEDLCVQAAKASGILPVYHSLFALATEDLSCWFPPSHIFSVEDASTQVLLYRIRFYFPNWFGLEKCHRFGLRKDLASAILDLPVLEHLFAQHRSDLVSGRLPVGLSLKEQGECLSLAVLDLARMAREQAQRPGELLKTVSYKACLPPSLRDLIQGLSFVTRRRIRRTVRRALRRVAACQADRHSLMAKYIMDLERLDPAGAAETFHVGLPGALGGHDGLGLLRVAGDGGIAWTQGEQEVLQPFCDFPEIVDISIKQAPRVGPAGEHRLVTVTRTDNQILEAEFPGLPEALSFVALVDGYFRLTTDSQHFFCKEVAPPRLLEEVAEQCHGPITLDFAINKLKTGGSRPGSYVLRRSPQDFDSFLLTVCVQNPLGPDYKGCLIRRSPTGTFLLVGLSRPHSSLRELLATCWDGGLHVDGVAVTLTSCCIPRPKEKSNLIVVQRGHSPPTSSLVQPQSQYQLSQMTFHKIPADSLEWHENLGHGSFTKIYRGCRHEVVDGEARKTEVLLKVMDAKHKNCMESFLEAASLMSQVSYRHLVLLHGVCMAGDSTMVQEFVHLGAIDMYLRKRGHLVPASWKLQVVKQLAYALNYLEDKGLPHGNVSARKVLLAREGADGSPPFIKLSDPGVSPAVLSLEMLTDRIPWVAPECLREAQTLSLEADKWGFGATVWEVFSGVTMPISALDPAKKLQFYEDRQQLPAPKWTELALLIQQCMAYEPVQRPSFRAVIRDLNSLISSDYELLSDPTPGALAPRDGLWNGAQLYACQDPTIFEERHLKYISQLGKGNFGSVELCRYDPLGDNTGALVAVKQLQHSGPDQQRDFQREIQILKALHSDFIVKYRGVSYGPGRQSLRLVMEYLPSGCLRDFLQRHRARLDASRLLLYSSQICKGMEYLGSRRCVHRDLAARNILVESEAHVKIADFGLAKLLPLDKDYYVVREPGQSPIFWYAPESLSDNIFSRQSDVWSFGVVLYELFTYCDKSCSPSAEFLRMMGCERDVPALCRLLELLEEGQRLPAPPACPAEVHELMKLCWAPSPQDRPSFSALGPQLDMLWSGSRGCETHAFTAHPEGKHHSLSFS

For test [2], the target named is T2, Serine/threonine-protein kinase Nek2 (Homo sapiens) (UniProt P51955).
T2 sequence (whole entry): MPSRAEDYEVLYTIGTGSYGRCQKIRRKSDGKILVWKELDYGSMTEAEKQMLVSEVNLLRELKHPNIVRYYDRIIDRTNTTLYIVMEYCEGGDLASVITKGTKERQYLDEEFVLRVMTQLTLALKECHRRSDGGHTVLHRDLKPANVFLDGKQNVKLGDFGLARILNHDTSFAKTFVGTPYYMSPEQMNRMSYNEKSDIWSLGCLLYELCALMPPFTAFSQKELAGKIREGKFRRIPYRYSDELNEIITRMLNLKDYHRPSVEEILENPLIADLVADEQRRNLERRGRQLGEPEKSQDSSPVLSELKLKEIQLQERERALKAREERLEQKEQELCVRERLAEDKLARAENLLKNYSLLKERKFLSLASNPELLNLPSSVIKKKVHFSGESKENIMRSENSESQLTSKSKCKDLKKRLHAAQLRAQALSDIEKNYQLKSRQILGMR

Test [3] has as its target T3, Ephrin type-A receptor 8 (Homo sapiens) (UniProt P29322).
T3 sequence (whole entry): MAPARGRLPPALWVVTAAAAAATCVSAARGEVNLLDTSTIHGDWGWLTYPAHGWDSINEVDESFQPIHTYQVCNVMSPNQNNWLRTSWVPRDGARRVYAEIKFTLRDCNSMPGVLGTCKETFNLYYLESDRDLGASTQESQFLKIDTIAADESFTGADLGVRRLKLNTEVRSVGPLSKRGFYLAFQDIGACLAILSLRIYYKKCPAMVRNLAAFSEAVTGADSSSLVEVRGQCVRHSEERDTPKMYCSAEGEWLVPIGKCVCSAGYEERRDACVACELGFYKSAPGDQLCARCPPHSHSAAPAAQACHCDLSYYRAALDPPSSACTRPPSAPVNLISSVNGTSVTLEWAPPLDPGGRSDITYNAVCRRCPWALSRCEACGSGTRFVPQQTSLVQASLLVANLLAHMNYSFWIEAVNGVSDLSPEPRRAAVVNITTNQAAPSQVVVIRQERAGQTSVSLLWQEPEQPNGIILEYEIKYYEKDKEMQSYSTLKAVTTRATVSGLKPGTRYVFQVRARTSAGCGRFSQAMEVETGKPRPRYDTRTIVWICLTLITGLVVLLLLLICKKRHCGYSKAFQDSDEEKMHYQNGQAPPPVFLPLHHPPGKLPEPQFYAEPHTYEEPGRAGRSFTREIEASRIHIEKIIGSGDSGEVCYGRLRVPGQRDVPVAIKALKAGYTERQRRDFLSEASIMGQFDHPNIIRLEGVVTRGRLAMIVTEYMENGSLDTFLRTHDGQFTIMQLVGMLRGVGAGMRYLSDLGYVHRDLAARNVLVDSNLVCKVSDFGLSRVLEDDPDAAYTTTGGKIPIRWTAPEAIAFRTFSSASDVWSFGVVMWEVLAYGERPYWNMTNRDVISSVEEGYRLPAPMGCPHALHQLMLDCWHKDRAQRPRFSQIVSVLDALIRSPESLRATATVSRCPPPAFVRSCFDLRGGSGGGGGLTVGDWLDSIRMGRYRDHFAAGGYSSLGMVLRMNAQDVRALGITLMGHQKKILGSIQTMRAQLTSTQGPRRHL

Test [4] concerns the target Ephrin type-A receptor 6 (Homo sapiens) (UniProt Q9UF33).
Where [5] appears, read: Compound concentration 100.0 nM.
The mark [6] stands for this setting: Compound concentration 1000.0 nM.

Ephrin type-A receptor 6 (Homo sapiens), sequence (Q9UF33 whole entry): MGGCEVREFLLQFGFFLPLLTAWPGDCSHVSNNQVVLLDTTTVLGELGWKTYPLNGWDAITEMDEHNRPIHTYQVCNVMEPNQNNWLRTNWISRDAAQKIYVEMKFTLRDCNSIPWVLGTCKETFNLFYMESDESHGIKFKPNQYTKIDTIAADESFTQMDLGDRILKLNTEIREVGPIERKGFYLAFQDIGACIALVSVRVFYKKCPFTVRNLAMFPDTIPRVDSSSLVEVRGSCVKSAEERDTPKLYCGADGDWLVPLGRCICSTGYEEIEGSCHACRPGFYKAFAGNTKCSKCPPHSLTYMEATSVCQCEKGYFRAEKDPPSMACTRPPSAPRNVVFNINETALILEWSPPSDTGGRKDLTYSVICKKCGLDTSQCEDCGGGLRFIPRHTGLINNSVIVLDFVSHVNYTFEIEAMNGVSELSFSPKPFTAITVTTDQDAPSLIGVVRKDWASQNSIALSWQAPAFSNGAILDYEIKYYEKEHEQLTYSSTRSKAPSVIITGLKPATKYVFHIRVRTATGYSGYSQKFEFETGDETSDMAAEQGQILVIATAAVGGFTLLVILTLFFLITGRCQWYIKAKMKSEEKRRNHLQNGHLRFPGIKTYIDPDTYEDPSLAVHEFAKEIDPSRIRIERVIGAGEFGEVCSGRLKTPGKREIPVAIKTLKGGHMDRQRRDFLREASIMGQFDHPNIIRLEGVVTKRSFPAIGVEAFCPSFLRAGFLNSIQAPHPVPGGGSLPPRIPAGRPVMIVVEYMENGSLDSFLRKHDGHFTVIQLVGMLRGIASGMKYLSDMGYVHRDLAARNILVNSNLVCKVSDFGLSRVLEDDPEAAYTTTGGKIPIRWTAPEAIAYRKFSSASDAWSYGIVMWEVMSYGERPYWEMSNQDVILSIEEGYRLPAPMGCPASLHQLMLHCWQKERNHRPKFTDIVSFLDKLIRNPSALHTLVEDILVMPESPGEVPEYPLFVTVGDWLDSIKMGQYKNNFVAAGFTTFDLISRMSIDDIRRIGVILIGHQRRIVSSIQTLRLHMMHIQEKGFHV

Usually residual activity stands for the share of the control activity or signal that is left under treatment. Regarding `C[C@@H]1CN(c2cc(-c3n[nH]c4ccc(OC5(C)CC5)cc34)ncn2)C[C@H](C)O1` [MLi-2], the residual activity in test [1] (setting [5]) is 0%; in test [2] (setting [5]) it was 86%; in test [3] (setting [5]), 82%; in test [4] (setting [5]), 90%.

Regarding `C[C@@H]1CN(c2cc(-c3nn(C)c4ccc(OC5(C)CC5)cc34)ncn2)C[C@H](C)O1` [MLi-2-NC], the residual activity is 12% in test [1] (setting [6]), 100% in test [2] (setting [6]), 100% in test [3] (setting [6]) and 100% in test [4] (setting [6]).
